Laboratory results reported in patent US8609672B2, “Piperazinylpyrimidine analogues as protein kinase inhibitors” (University of the Pacific, priority 2010, dated 2013).

Experiments:
CCRF-CEM = test: NCI-60 SRB growth inhibition: CCRF-CEM; assay type: cell-based, human; conditions: Leukemia, 48 hours treatment
K-562 = test: NCI-60 SRB growth inhibition: K-562; assay type: cell-based, human; conditions: K-562, Leukemia, 48 hours treatment; for CC50: Homo sapiens, K562, read-out: LC50 (the source's name)
EKVX = test: NCI-60 SRB growth inhibition: EKVX; assay type: cell-based, human; conditions: Non-small cell lung cancer, 48 hours treatment; for CC50: Homo sapiens, read-out: LC50 (the source's name)
HOP-92 = test: NCI-60 SRB growth inhibition: HOP-92; assay type: cell-based, human; conditions: HOP-92, Non-small cell lung cancer; 48 hours treatment
HT29 = test: NCI-60 SRB growth inhibition: HT29; assay type: cell-based, human; conditions: HT29, Colon cancer, 48 hours treatment; for CC50: Homo sapiens, HT-29, read-out: LC50 (the source's name)
SF-295 = test: NCI-60 SRB growth inhibition: SF-295; assay type: cell-based, human; conditions: for CC50: Homo sapiens, SF-295, 48 h, read-out: LC50 (the source's name); for TGI: SF-295, CNS cancer, 48 hours treatment
SNB-19 = test: NCI-60 SRB growth inhibition: SNB-19; assay type: cell-based, human; conditions: SNB-19, CNS cancer, 48 hours treatment; for CC50: Homo sapiens, read-out: LC50 (the source's name)
MDA-MB-435 = test: NCI-60 SRB growth inhibition: MDA-MB-435; assay type: cell-based, human; conditions: MDA-MB-435, Melanoma, 48 hours treatment; for CC50: Homo sapiens, read-out: LC50 (the source's name)
SK-MEL-5 = test: NCI-60 SRB growth inhibition: SK-MEL-5; assay type: cell-based, human; conditions: SK-MEL-5, Melanoma; 48 hours treatment
UACC-62 = test: NCI-60 SRB growth inhibition: UACC-62; assay type: cell-based, human; conditions: UACC-62, Melanoma; 48 hours treatment
786-0 = test: NCI-60 SRB growth inhibition: 786-0; assay type: cell-based, human; conditions: 786-0, Renal cancer; 48 hours treatment
PC-3 = test: NCI-60 SRB growth inhibition: PC-3; assay type: cell-based, human; conditions: PC-3, Prostate cancer; 48 hours treatment
DU-145 = test: NCI-60 SRB growth inhibition: DU-145; assay type: cell-based, human; conditions: for TGI: DU-145, Prostate cancer, 48 hours treatment; for CC50: Homo sapiens, DU-145, 48 h, read-out: LC50 (the source's name)
HS 578T = test: NCI-60 SRB growth inhibition: HS 578T; assay type: cell-based, human; conditions: Breast cancer, 48 hours treatment; for CC50: Homo sapiens, read-out: LC50 (the source's name)
T-47D = test: NCI-60 SRB growth inhibition: T-47D; assay type: cell-based, human; conditions: Breast cancer, 48 hours treatment; for CC50: Homo sapiens, T47D, read-out: LC50 (the source's name)
ABL1(F317I) = molecular target: T1, ABL1(F317I) (Homo sapiens, UniProt P00519, F317I); test: Kinase binding screening: ABL1(F317I); conditions: 10 μM compound, phosphorylated form, read-out: B-POC (binding percentage of control)
T1 construct: purchased Ambit Bioscience (assay service)
T1 sequence (P00519 whole entry F317I): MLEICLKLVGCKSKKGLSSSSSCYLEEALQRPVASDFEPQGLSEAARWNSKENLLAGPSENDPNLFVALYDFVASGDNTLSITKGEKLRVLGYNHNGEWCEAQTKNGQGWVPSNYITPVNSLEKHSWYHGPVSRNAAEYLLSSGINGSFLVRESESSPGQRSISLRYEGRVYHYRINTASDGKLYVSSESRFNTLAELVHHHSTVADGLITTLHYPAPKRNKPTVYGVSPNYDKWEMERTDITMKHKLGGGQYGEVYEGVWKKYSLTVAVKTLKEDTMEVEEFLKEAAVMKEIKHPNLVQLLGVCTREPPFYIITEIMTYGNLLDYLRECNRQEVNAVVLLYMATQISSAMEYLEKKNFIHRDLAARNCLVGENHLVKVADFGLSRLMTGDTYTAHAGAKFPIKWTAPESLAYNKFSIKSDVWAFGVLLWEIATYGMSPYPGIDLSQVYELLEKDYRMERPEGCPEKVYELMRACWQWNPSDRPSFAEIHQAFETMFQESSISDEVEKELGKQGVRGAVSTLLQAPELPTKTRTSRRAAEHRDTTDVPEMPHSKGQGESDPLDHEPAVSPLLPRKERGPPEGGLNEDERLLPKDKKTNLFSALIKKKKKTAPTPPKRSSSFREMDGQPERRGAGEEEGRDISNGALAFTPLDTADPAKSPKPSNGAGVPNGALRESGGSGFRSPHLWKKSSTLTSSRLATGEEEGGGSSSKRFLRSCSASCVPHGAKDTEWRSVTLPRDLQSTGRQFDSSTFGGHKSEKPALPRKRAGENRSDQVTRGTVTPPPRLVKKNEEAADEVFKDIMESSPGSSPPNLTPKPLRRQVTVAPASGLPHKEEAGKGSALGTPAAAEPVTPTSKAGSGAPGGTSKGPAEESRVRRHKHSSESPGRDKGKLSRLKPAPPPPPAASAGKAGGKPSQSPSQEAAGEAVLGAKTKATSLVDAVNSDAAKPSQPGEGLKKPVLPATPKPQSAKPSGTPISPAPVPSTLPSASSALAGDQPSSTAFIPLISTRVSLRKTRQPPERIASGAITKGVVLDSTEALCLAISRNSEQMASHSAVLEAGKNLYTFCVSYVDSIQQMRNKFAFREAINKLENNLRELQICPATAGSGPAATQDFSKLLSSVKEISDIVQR
Description: (§1) Biotinylated kinase ligand was immobilized onto streptavidin coated magnetic beads and washed with blocking buffer. The liganded beads were then incubated with DNA-tagged kinase in the presence of test compound for 1 h at room temperature. Binding reactions were carried out in 20% Seablock, 0.17×PBS, 0.005% Tween 20, 6 mM DTT, in a final volume of 0.04 mL. Beads were then washed with wash buffer (PBS, 0.05% Tween 20), and then incubated with elution buffer (PBS, 0.05% Tween […] non-biotinylated kinase ligand) and eluted. The kinase concentration in the eluate was then measured by quantitative PCR. […] The results of this single dose screening are reported in the form of binding percentage of control (B-POC) which is defined as follows:
(§2) [formula] The negative control signal is obtained by the vehicle and corresponds to B-POC=100%. The positive signal control is detected by a binding positive compound and is B-POC 0%. The B-POC results are the average of duplicate measurements. Only interactions with […] were considered significant and thus used for calculating the selectivity scores (Table 1) of the test compounds as follows:
(§3) [formula] […] The Kd is then calculated according to the following equation:
(§4) [formula] hill slope=−1. A non-linear least square fit with the Levenberg-Marquardt algorithm was implemented to fit the curves (FIG. 3). […]

ABL1(F317L) = molecular target: T2, ABL1(F317L) (Homo sapiens, UniProt P00519, F317L); test: Kinase binding screening: ABL1(F317L); conditions: 10 μM compound, phosphorylated form, read-out: B-POC (binding percentage of control)
T2 construct: purchased Ambit Bioscience (assay service)
T2 sequence (P00519 whole entry F317L): as the sequence (P00519 whole entry F317I) above, with I317L counted along it
Description: as §1, §2, §3, §4

MDA-MB-468 [1] = test: Cell cycle analysis of MDA-MB-468 cells; assay type: cell-based, human; conditions: MDA-MB-468, within 24 hours
MDA-MB-468 [2] = test: Annexin V assay, MDA-MB-468 cells; assay type: cell-based, human; conditions: MDA-MB-468, higher doses, within 24 hours

Structure (SMILES) | CC50 (K-562) [µM] | TGI (K-562) [µM] | CC50 (EKVX) [µM] | TGI (EKVX) [µM] | TGI (HT29) [µM] | CC50 (HT29) [µM] | CC50 (SF-295) [µM] | TGI (SF-295) [µM] | CC50 (SNB-19) [µM] | TGI (SNB-19) [µM] | CC50 (MDA-MB-435) [µM] | TGI (MDA-MB-435) [µM] | TGI (SK-MEL-5) [µM] | TGI (UACC-62) [µM] | TGI (786-0) [µM] | TGI (PC-3) [µM] | TGI (DU-145) [µM] | CC50 (DU-145) [µM] | TGI (HS 578T) [µM] | CC50 (HS 578T) [µM] | also measured
c1ccc(Cc2cnc(N3CCN(c4ncnc5ccccc45)CC3)nc2)cc1 [Compound 4, 4-(4-(5-benzylpyrimidin-2-yl)piperazin-1-yl)quinazoline] | > 100 | >100 | > 100 | 33.10 | 35.10 | 79.2 | > 100 | 26.00 | > 100 | >100 | 91.4 | 27.50 | 13.90 | 25.90 | 36.70 | >100 | 30.70 | 79.8 | 54.80 | > 100 | TGI (CCRF-CEM): 64.40 µM; TGI (HOP-92): 24.20 µM; TGI (T-47D): 45.50 µM; CC50 (T-47D): > 100 µM; remaining activity at 10 µM (ABL1(F317I)): 30%
CCc1cnc(N2CCN(C(=O)c3ccc(CNc4ncnc5ccccc45)cc3)CC2)nc1 [Compound 15, (4-(5-ethylpyrimidin-2-yl)piperazin-1-yl)(4-((quinazolin-4-ylamino)methyl)phenyl)methanone] | > 100 | >100 | > 100 | 61.40 | 83.20 | > 100 | > 100 | 23.10 | > 100 | >100 | > 100 | >100 | 2.90 | 80.90 | 54.80 | >100 | >100 | > 100 | >100 | > 100 | TGI (CCRF-CEM): 60.90 µM; TGI (HOP-92): 80.09 µM; TGI (T-47D): >100 µM; CC50 (T-47D): > 100 µM; remaining activity at 10 µM (ABL1(F317L)): 6.8%; cell cycle effect (MDA-MB-468 [1]): arrest at the G2/M phase of the cell cycle; apoptosis (Annexin V) (MDA-MB-468 [2]): a significant fraction of the tumor cells undergo apoptosis
O=C(c1cccc(Nc2ncnc3ccccc23)c1)N1CCN(c2ncc(Cc3ccccc3)cn2)CC1 [Compound 16, (4-(5-benzylpyrimidin-2-yl)piperazin-1-yl)(3-(quinazolin-4-ylamino)phenyl)methanone] | > 100 | 2.23 | > 100 | 4.90 | 9.33 | > 100 | > 100 | 2.24 | > 100 | 8.91 | 4.57 | 2.14 | 1.20 | 1.86 | 6.61 | 2.88 | 6.46 | > 100 | 7.41 | > 100 | TGI (T-47D): 7.59 µM; CC50 (T-47D): 5.62 µM; remaining activity at 10 µM (ABL1(F317I)): 20%
